Experimental data taken from patent US20040197222A1 (priority 2002, published 2004).
“Also recorded” adds a separate entry of the source. Read-outs that look alike come from different tables or passages of the source.

Experiments:
[1] = tested on: B. stearothermophilus spores (10^5, ATCC #7953); type: cell-based, Bacillus stearothermophilus
[2] = tested on: B. subtilis var. niger strips containing 10^8 spores; type: cell-based, Bacillus subtilis var. niger; conditions: 28 °C to 38 °C, 250 to 350 oz/mcf, 48 hours
[3] = tested on: 10^6 spores of B. subtilis var. niger ATCC # 9372; type: cell-based, Bacillus subtilis var. niger; conditions: trailer, 20 sites, 28 °C to 38 °C, 250 to 350 oz/mcf, 48 hours
[4] = tested on: Bacillus anthracis ANR-1 spores; type: cell-based; conditions: 37 °C; for reduction in B. anthracis spores: all concentrations tested (80 to 320 mg/L)
[5] = tested on: 10^5 of B. stearothermophilus ATCC # 7953; test: Trailer field fumigation, combined-species spore strips incubated for B. stearothermophilus; type: cell-based, Bacillus stearothermophilus
[6] = tested on: B. subtilis var. niger spores (10^6, ATCC #9372); type: cell-based, Bacillus subtilis var. niger; conditions: for germination of B. subtilis spores: exposure as long as 164 hours
B. atrophaeus spores = type: cell-based
[7] = tested on: G. stearothermophilus spores; type: cell-based

What does the source list for CBr [methyl bromide]?
Spore Germination B. stearo. [1]: no and yes; germination of Bacillus stearothermophilus spores [1]: prevented from germinating; germination of spores in strips with concentrations of 10^8, field fumigation [2]: successfully disabled; spores on all 10^6 B. subtilis strips, field fumigation [3]: successfully disabled; spores on all 10^6 B. subtilis strips, field fumigation ([3]; listed as MB): killed; lowest total concentration at which treatment is effective (B. anthracis) ([4]; 48 hours): 80 mg/L; reduction in B. anthracis spores ([4]; 48 hours): ≥ 7 log; reduction in B. anthracis spores ([4]; 48 hours, listed as MB): ≥ 6 log; B. anthracis spores in chamber 6 ([4]; chamber 6, 48 hours): completely killed; B. anthracis spores remaining (detection level) ([4]; out of 14 million, 80 to 320 mg/L, 48 hours): < 50 spores; spores on all 10^5 B. stearothermophilus strips, field fumigation [5]: successfully disabled; also recorded: killed; Spore Germination B. subtilis ([6]; 19 °C, MeBr 48 mg/l (theoretical), 104 hours, 5,000 mg-hr/l): yes; Spore Germination B. subtilis ([6]; 19 °C, MeBr 48 mg/l (theoretical), 146 hours, 7,000 mg-hr/l): yes; Spore Germination B. subtilis ([6]; 19 °C, MeBr 80 mg/l (theoretical), 112 hours, 9,000 mg-hr/l): yes; Spore Germination B. subtilis ([6]; 19 °C, MeBr 80 mg/l (theoretical), 134 hours, 11,000 mg-hr/l): yes; Spore Germination B. subtilis ([6]; 19 °C, MeBr 80 mg/l (theoretical), 164 hours, 13,120 mg-hr/l): yes; Spore Germination B. subtilis ([6]; 19 °C, MeBr 160 mg/l (theoretical), 164 hours, 26,240 mg-hr/l): yes; germination of B. subtilis spores ([6]; 19 °C, methyl bromide 48 to 80 mg/l (theoretical value)): still germinated; germination of B. subtilis spores ([6]; 19 °C, methyl bromide as high as 320 mg/l (theoretical value)): still able to germinate; B. subtilis spore germination ([6]; 27 °C, methyl bromide 320 mg/l (theoretical value), 72 hours): successfully disabled; germination of the B. subtilis spores ([6]; 32 °C, methyl bromide 160 mg/l (theoretical value), 72 hours): not sufficient to stop germination; also recorded: not sufficient to prevent germination; B. subtilis spore germination ([6]; 32 °C, methyl bromide 240 mg/l (theoretical value), 38 hours): successfully disabled; Spore Germination B. subtilis ([6]; Example 1, 19 °C, MeBr 48 mg/l (theoretical), 63 hours, 3,000 mg-hr/l): yes; Spore Germination B. subtilis ([6]; Example 2, 19 °C, MeBr 48 mg/l (theoretical), 63 hours, 3,000 mg-hr/l): yes; Spore Germination B. subtilis ([6]; Example 2, 20 °C, MeBr 320 mg/l (theoretical), 72 hours, 23,040 mg-hr/l): yes; Spore Germination B. subtilis ([6]; Example 2, 20 °C, MeBr 320 mg/l (theoretical), 96 hours, 30,720 mg-hr/l): yes; Spore Germination B. subtilis ([6]; Example 2, 27 °C, MeBr 240 mg/l (theoretical), 48 hours, 11,520 mg-hr/l): yes; Spore Germination B. subtilis ([6]; Example 2, 27 °C, MeBr 320 mg/l (theoretical), 72 hours, 23,040 mg-hr/l): no; Spore Germination B. subtilis ([6]; Example 2, 27 °C, MeBr 320 mg/l (theoretical), 96 hours, 30,720 mg-hr/l): no; Spore Germination B. subtilis ([6]; Example 2, 27 °C, MeBr 320 mg/l (theoretical), 96 hours, 30,720 mg-hr/l, chamber contained office commodities): no^4; Spore Germination B. subtilis ([6]; Example 3, 19 °C, MeBr 48 mg/l (theoretical), 63 hours, 3,000 mg-hr/l): no; Spore Germination B. subtilis ([6]; Example 3, 27 °C, MeBr 320 mg/l (theoretical), 62 hours, 19,776 mg-hr/l): no; Spore Germination B. subtilis ([6]; Example 3, 32 °C, MeBr 160 mg/l (theoretical), 72 hours, 11,520 mg-hr/l): yes; Spore Germination B. subtilis ([6]; Example 3, 32 °C, MeBr 240 mg/l (theoretical), 48 hours, 11,520 mg-hr/l): no; Spore Germination B. subtilis ([6]; Example 3, 32 °C, MeBr 240 mg/l (theoretical), 72 hours, 17,280 mg-hr/l): no; Spore Germination B. subtilis ([6]; Example 3, 32 °C, MeBr 320 mg/l (theoretical), 38 hours, 12,160 mg-hr/l): no; Spore Germination B. subtilis ([6]; Example 3, 32 °C, MeBr 320 mg/l (theoretical), 47 hours, 15,104 mg-hr/l): no; Recovery of viable spores, commercial spore strips B. atrophaeus (B. atrophaeus spores): no growth; also recorded: growth; killing of B. atrophaeus spores on a spore strip (B. atrophaeus spores): insufficient to kill all B. atrophaeus spores; Recovery of viable spores, commercial spore strips G. stearothermophilus A [7]: no growth; Recovery of viable spores, commercial spore strips G. stearothermophilus B [7]: no growth; also recorded: growth; killing of G. stearothermophilus spores on a spore strip [7]: capable of killing all G. stearothermophilus spores
